Biological target: T1, MurC (Acinetobacter baumannii, UniProt A3M9Y0)
T1 construct: full length, N-terminal 6xHis tag removed by TEV protease, E. coli BL21(DE3)
Assay: HPLC of UMA formation
Format: biochemical
Settings: 200 µM UDP-MurNAc, 1 mM L-alanine, 1 mM ATP, 2 mM MgCl2, pH 7.4, 37 °C

T1 sequence (A3M9Y0 whole entry): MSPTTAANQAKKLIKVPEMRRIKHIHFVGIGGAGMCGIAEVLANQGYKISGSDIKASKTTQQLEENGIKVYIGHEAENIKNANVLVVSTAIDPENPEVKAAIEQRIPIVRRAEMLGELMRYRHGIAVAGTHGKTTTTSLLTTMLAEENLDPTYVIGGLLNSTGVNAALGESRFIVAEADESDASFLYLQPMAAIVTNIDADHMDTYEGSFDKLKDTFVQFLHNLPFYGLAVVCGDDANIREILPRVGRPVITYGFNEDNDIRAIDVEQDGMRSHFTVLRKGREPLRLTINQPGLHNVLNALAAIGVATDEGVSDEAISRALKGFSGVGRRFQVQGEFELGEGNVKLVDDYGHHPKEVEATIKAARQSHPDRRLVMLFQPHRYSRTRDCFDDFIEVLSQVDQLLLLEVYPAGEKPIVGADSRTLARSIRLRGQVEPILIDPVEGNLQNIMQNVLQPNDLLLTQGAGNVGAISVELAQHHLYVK

CC(=O)N[C@H]1[C@@H](OP(=O)(O)OP(=O)(O)OC[C@H]2O[C@@H](n3ccc(=O)[nH]c3=O)[C@H](O)[C@@H]2O)O[C@H](CO)[C@@H](O)[C@@H]1O[C@H](C)C(=O)O [UDP-MurNAc]
HPLC of UMA formation: MurC and MurD activity were quantified by measuring MurC product, UMA

— paper PMC12208494, “The zinc metalloprotein MigC impacts cell wall biogenesis through interactions with an essential Mur ligase in Acinetobacter baumannii” (PLOS Pathogens, 2025)
